The values that follow come from US7989165B2, “Tape stripping methods for analysis of skin disease and pathological skin state” (DermTech International, priority 2004, dated 2011).

Holding throughout (type): in vivo, human
One assay has as its system IL-1β mRNA. The experiment in a line: Semi-quantitative RT-PCR of IL-1β mRNA relative to β-actin in SLS-occluded skin (tape and biopsy). The source says: Clinical protocols: The study protocols were reviewed and approved by an independent IRB (BioMed IRB, San Diego) and all subjects signed informed consent. […] The bandages were made using a clear, non-porous plastic hypoallergenic adhesive tape. […] The sites were scored by a trained technician using the scale provided below. […] Abbott Laboratories). […] An area of uninvolved skin was tape harvested and shave biopsied in an identical manner. […] The following grading scale was used: 0, no visible reaction; 1, slight, pink, patchy erythema; 2, mild confluent, pink erythema; 3, moderate erythema (definite redness) with edema; 4, strong erythema (very intense redness) with edema. […] Patches were removed, scored and tape stripped as above. In a third study, two individuals were tape stripped on uninvolved skin on the upper back at three adjacent sites as above. RNA harvested in these last two studies was used in the DNA microarray experiments described below. Isolation of RNA: […] Extraction was performed using the manufacturer's directions and included a Proteinase K digestion, sonication of tapes and “on-column” DNase I digestion. […] Extraction of biopsies was performed with the same kit according to the manufacturer's instructions. Quantitative RT-PCR: 10 μl of RNA was reverse transcribed (RT) into cDNA with the Sensiscript Reverse Transcriptase kit and random hexamers in a final volume of […] according to the manufacturer's directions. […] All RT-reactions were amplified using 2 replicates and were negative (data not shown). Amplification and detection of specific mRNA: Specific mRNAs were converted to cDNA as described above. […] Amplification and detection assays were performed using TaqMan Pre-Developed Assay Reagents (PDAR; […] GAPDH mRNA assays were done in singleplex format. Thermal cycling conditions were: prior to cycling, two minutes at 50° C., then ten minutes at 95° C.; then 40 cycles at 95° C. for 15 seconds and 60° C. for 60 seconds. […] Semi-quantitation of mRNA using the ΔΔCt method: In this Example the comparative or ΔΔCt method of calculating relative gene expression levels between two samples, was used. In the ΔΔCt method the levels of IL-1β, IL-8 and GAPDH mRNAs are assayed semi-quantitatively by normalization to β-actin mRNA to create a ratio of (mRNAx)/(β-actin) mRNA for each RNA sample. This ratio is then further normalized to a control sample (a process called “calibration”; (Applied Biosystems 2001)). When comparing the ratio of mRNAx to β-actin mRNA between two different samples, it is implicitly assumed that the level of β-actin mRNA to total RNA is constant between the two samples (i.e. it is an unchanging housekeeping gene). […] The Ct values are the experimentally determined number of PCR cycles required to achieve a threshold fluorescence (statistically significant increase in fluorescence over background) for mRNAx and β-actin mRNA (Gibson, Heid et al. 1996; Heid, Stevens et al. 1996). Calculation of fold-increase and data analysis: Key to the method used to measure mRNA is the fact that the quantity of specific mRNA directly correlates with the number of cycles needed to reach threshold fluorescence, thus the fewer the number of cycles (the lower the Ct), the more mRNA is initially present. As described above, experimental data is reported as the number of cycles (Ct) required to reach a threshold fluorescence. […] The significance of ΔCt values (Tables I and IV) was determined by applying a two-sided, paired t-test. […]

Assay [1] relates to gene expression levels in skin. Put plainly: DNA microarray (Affymetrix HG-U133A GeneChip) of tape-harvested RNA, untreated vs water vs SLS-occluded skin. As to conditions: threshold p=0.003, PPDE(p) 0.99. The text has this: Clinical protocols: The study protocols were reviewed and approved by an independent IRB (BioMed IRB, San Diego) and all subjects signed informed consent. Ten healthy women, ages 21-55 were enrolled in the study. Regions of unblemished, normal appearing skin on the mid back were chosen for the application of 2 occlusive patches in the form of bandages approximately 4 cm×6.5 cm. The bandages were made using a clear, non-porous plastic hypoallergenic adhesive tape. In the center of this tape was a Webril (non-woven cotton) patch measuring approximately 2 cm×4.5 cm. One Webril patch contained 0.6 ml of 1% aqueous sodium lauryl sulfate and the other contained 0.6 ml of sterile water as the vehicle control. […] At 24 hours post application, the SLS and water patches were removed and the skin allowed to air dry for 15 minutes before scoring. The sites were scored by a trained technician using the scale provided below. Patched sites were large enough that two areas could be tape harvested without overlap and room left for a shave biopsy (˜2×2 mm). Skin sites were tape stripped with 4 tapes each and then a shave biopsy taken under local anesthetic (lidocaine HCl 1% and epinephrine 1:100,000; Abbott Laboratories). […] In a second study, 3 subjects had 3 patches containing 1% SLS and 3 water patches applied to the mid back for 24 hours: Patches were removed, scored and tape stripped as above. […]

Another assay deals with Krt-17 mRNA. The experiment in a line: RT-PCR of keratin-17 mRNA relative to β-actin in SLS-irritated and control skin (tape and biopsy). Details: key to ΔCt,Krt-17, Tape, SLS / ΔCt,Krt-17, Biopsy, SLS: ΔCt: keratin mRNA Ct normalized to β-actin Ct in same sample. As to conditions: for ΔCt,Krt-17, Biopsy, SLS / ΔCt,Krt-17, Tape, SLS: 1% SLS occlusive patch 24 hours, mid-back, relative to β-actin, per subject 1-10 and Average; for ΔCt,Krt-17, Biopsy, SLS / Fold Increase Krt-17/βactin mRNA ratio vs. normal, Biopsy, SLS: biopsy RNA; for ΔCt,Krt-17, Biopsy, SLS / ΔCt,Krt-17, Tape, SLS / Fold Increase Krt-17/βactin mRNA ratio vs. normal, Biopsy, SLS / Fold Increase Krt-17/βactin mRNA ratio vs. normal, Tape, SLS: sulfate; for ΔCt,Krt-17, Tape, SLS / Fold Increase Krt-17/βactin mRNA ratio vs. normal, Tape, SLS: tape-stripped RNA; for Fold Increase Krt-17/βactin mRNA ratio vs. normal, Biopsy, SLS / Fold Increase Krt-17/βactin mRNA ratio vs. normal, Tape, SLS: 1% SLS patch 24 hours vs untreated skin, per subject and Average. The text has this:
The samples analyzed in this study are those described in the protocol performed by Wong et al. (Wong, Tran et al. 2004). […] Patches were removed and equivalent skin sites were biopsied and tape stripped as described in the Examples above. As an additional control, normal skin was also biopsied and tape stripped. Samples were processed for total RNA and assayed for keratin-10, keratin-16, keratin-17 and β-actin mRNA. The keratin mRNAs were normalized to β-actin mRNA in each sample. The semi-quantitative RT-PCR assay has been previously described (Wong, Tran et al. 2004).

Where [2] appears, read: SLS-occluded skin vs uninvolved skin.

Several values for one entry are separate records, joined by “and”; a condition that tells them apart may be missing. Equal entries are not always repeated. Marks after values point to notes of the source that are not given here. Where only a bound is given, the exact number is not on record here.

With `CCCCCCCCCCCCOS(=O)(=O)[O-].[Na+]` [SLS, sodium lauryl sulfate], in the assay with IL-1β mRNA (SLS-occluded skin relative to uninvolved skin, biopsy samples, per subject, > = minimum estimate, sulfate), the “fold-change in IL-1β/β-actin mRNA ratio, Biopsy” value is >15**^† fold and >3.3** fold and >8**^† fold and >34**^† fold and >11**^† fold and 56**^† fold and >53**^† fold and 2.2** fold and 1 fold and >28**^† fold. The “fold-change in IL-1β/β-actin mRNA ratio, Tape” value in the assay on IL-1β mRNA (SLS-occluded skin relative to uninvolved skin, tape samples, per subject, > = minimum estimate, sulfate) was 18**^† fold and >0.44 fold and >8.1**^† fold and >1.9** fold and >5** fold and >1.4 fold and >7.3**^† fold. Also, in the assay with IL-1β mRNA (setting [2]), the “biopsy samples with significantly elevated IL-1β/β-actin mRNA ratio” value is reported as 9 of 10 and the “tape-harvested samples with significant increases in IL-1β/β-actin mRNA” value is 5 of 10. Also, the “SLS-treated biopsy samples with significant increases in IL-1β/actin mRNA ratio calibrated to the water-treated site” value in the assay with IL-1β mRNA (of 10 biopsy samples) came out at 7 samples. Further, the “number of genes differentially expressed, SLS vs water treated” value in assay [1] was 1,364 genes. In the assay with Krt-17 mRNA, the “ΔCt,Krt-17, Biopsy, SLS” value was 0.71 and −2.29 and −2.5 and 1.13 and −1.97 and −1.63 and −2.91 and −1.75 and −1.86 and −0.11; the “ΔCt,Krt-17, Tape, SLS” value was −5.12 and 1.64 and 1.5 and −4.87 and −1.79 and 1.11 and −1.84 and 1.38 and 0.21 and −2.12; the “Fold Increase Krt-17/βactin mRNA ratio vs. normal, Biopsy, SLS” value was 13.31 fold and 94.54 fold and 44.95 fold and 4.51 fold and 27.19 fold and 15.44 fold and 459.45 fold and 195.94 fold and 48.35 fold and 41.13 fold; the “Fold Increase Krt-17/βactin mRNA ratio vs. normal, Tape, SLS” value is 1.67 fold and 0.02 fold (2×) and 0.01 fold and 0.17 fold and 0.05 fold and 0.04 fold and 0.5 fold. In the assay on Krt-17 mRNA (mean), the “ΔCt,Krt-17, Biopsy, SLS” value is listed as −1.32; the “ΔCt,Krt-17, Tape, SLS” value is −0.99; the “Fold Increase Krt-17/βactin mRNA ratio vs. normal, Biopsy, SLS” value turned out to be 42.52 fold; the “Fold Increase Krt-17/βactin mRNA ratio vs. normal, Tape, SLS” value is 0.12 fold. Moreover, in the assay on Krt-17 mRNA (SLS-treated skin vs untreated), the “average fold-increase of K17, biopsy” value is on record as 42 fold and the “decrease of K17/actin mRNA ratio, tape” value is given as 8 fold.
